{
  "source": "patent EP4335840A1",
  "about": "“NEW CONTRAST AGENTS FOR USE IN DIAGNOSTIC IMAGING” (priority 2022, dated 2024)",
  "data": [
    {"molecular_target": "T1, OATP1B3 (Homo sapiens, UniProt Q9NPD5)", "T1 sequence (Q9NPD5 1-702)": "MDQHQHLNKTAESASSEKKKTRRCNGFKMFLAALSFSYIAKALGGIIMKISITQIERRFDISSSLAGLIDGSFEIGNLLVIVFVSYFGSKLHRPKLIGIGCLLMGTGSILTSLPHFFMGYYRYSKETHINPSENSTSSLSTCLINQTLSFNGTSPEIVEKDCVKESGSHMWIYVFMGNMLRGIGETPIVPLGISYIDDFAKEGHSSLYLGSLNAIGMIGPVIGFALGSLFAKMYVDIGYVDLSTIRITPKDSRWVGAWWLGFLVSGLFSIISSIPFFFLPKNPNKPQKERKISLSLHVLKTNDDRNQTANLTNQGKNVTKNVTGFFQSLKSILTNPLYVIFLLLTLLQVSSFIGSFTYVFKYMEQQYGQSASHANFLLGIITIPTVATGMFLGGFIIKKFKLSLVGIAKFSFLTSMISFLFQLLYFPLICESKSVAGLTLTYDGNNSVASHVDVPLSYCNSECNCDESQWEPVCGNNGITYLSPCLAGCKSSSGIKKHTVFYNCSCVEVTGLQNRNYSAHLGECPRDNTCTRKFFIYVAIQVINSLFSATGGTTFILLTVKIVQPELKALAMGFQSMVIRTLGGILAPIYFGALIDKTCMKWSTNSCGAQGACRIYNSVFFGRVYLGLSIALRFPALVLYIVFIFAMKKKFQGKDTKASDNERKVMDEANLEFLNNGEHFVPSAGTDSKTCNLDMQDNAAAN", "assay": "Uptake into stable transfected OATP1B3 HEK 293 cells", "format": "cell-based", "settings": "100 µM, 40 min, relative to RC1 (Gd-EOB-DTPA)", "experimental": "Human transfected OATP1B3 human embryonic kidney 293 cells (OATP1B3 HEK 293, SLCO1B3, Entrez Gene ID: 28234) were used (Leonhardt M et al. Drug Metab Dispos. 2010 Jul;38(7):1024-8). The following culture medium was used: 500 mL DMEM (Dulbecco's Modified Eagle Medium - high Glucose, D6429), 50 mL FCS (fetal bovine serum, Fa. Sigma, F7524), 5.8 mL G418 (Geneticin, Fa. Gibco 10131-027) and 5 mL Pen-Strep. (Penicillin-Streptomycin, Fa. Gibco, Ref 15140-122). Cryopreserved cells were shortly thawed in water bath and diluted in 10 mL warm culture medium (37°C). After medium change the cells were grown for 3d in a 25 cm^2 cell culture flask. After 3 to 5d the cells were transferred into 75 cm^2 flasks. For the splitting of cells these were incubated with 1.5 mL trypsin (Trypsin-EDTA (1x) 0,05%, Ref 25300-054 100ml, Fa. Gibco) for 3-5 min in the incubator (37°C, 5% CO2 and […]). After centrifugation and washing with medium the cells were counted (50 µL cell suspension and 50 µL trypan blue (Trypan Blue Solution, 93595-50ml, Fa. Fluka). Cells were cultured (1×10^5 cells/well) in poly-D-lysine coated 24-well plates (Fa. Corning, Ref: 354414) in 1.5 mL medium per well. After 48 hours in the incubator the medium was changed and 1.5 mL/well sodium butyrate containing medium were added (40 mL culture medium plus 400 µL Na-Butyrate, Fa. Sigma Aldrich B5887-5G, 250 mg in 2.27 mL MilliQ water). After 24 hours in the incubator the medium was vacuumed off and 1.5 mL transport buffer was added and incubated for 10 min. The transport buffer contains the following ingredients: 500 mL HBSS (Hank's balanced salt solution, Hyclone, SH30268.01), 5 mL HEPES buffer (4-(2-hydroxyethyl)-1-piperazine-ethanesulfonic acid, Gibco 15630-056) and 3.9 mL glucose (Sigma, G8270-100, 90 g/200mL MilliQ water). All test items were prepared in transport buffer at a final concentration of 100 µM from stock solutions (180 to 500 mM concentration). The OATP1B3 HEK 293 cells were incubated with test solutions (test item in transport buffer 500 µL) for 40min on a thermoshaker without shaking (PHMP, Fa. Grant Bio). Triplicates were performed for each test item. After incubation the cells were washed with 2 mL of cold PBS (+) buffer (Dulbeccos PBS +, Fa. Gibco). […] As a reference standard Gd-EOB-DTPA (gadoxetate) is used in the same well plate. The OATP1B3 HEK 293 uptake of the test compound is calculated relative to gadoxetate (resulting in the unit % of RC1).", "values": [
      {"substance": "Gadolinium-2,2',2\"-[(2S)-10-(carboxymethyl)-2-(4-ethoxybenzyl)-1,4,7,10-tetraazacyclododecane-1,4,7-triyl]triacetate [Example 11]", "Uptake into OATP1B3-HEK 293 cells": "32 % of RC1"},
      {"substance": "Gadolinium-2,2',2\"-[(2S)-2-(4-butoxybenzyl)-10-(carboxymethyl)-1,4,7,10-tetraaza cyclododecane-1,4,7-triyl]triacetate [Example 13]", "Uptake into OATP1B3-HEK 293 cells": "383 % of RC1"},
      {"substance": "Gadolinium-2,2',2\"-[(2S)-10-(carboxymethyl)-2-(4-ethoxybenzyl)-1,4,7,10-tetraazacyclododecane-1,4,7-triyl]triacetate [Example 10]", "Uptake into OATP1B3-HEK 293 cells": "80 % of RC1"},
      {"substance": "Gadolinium-2,2',2\"-[10-(carboxymethyl)-2-(4-ethoxybenzyl)-1,4,7,10-tetraazacyclododecane-1,4,7-triyl]triacetate [Example 9]", "Uptake into OATP1B3-HEK 293 cells": "13 % of RC1"},
      {"substance": "Gadolinium-2,2',2\"-[10-(carboxymethyl)-2-(4-ethoxybenzyl)-1,4,7,10-tetraazacyclododecane-1,4,7-triyl]triacetate [Example 8]", "Uptake into OATP1B3-HEK 293 cells": "94 % of RC1"},
      {"substance": "Gadolinium-2,2',2\"-[(2S)-2-(4-butoxybenzyl)-10-(carboxymethyl)-1,4,7,10-tetraaza cyclododecane-1,4,7-triyl]triacetate [Example 12]", "Uptake into OATP1B3-HEK 293 cells": "66 % of RC1"}
    ]}
  ]
}
